# Results published in publication PMC12040169 (PLOS Biology, 2025).
# Experiment: in vitro
# Settings: human, hela cells, % viability
row,Compound,"viability at 28.5 h, 10 µM [%]"
1,CN1CCCc2ccc(S(=O)(=O)Nc3nc4ncccn4n3)cc21 [CBK305226],85.7
2,CCn1cnc(S(=O)(=O)N2CCC(OCc3ccccc3)CC2)c1 [CBK305228],73.1
3,Cc1cc(NC(=O)CN2CCOC(CNc3cccnn3)C2)on1 (centres unmarked) [CBK305231],109
4,COc1cccc(CC(=O)N2CCOc3ncccc32)c1 [CBK305235],98.4
5,CC1(C)CCCC1NC(=O)NCc1cccc(-c2nnc[nH]2)c1 (centres unmarked) [CBK305236],83.9
6,Cc1cc(NC(=O)CN(C)CCNC(=O)C2CCCC2)no1 [CBK305237],84.9
7,Cc1cc(C(=O)CSc2nccc(C(F)(F)F)n2)c(C)n1C1CC1 [CBK305238],80
8,CS(=O)(=O)N1CCCc2cc(-c3csc(-c4cnccn4)n3)ccc21 [CBK305239],95.4
9,Cc1cc(C2CCCN(C(=O)CC3OCCc4sccc43)C2)n[nH]1 (centres unmarked) [CBK305241],94.3
10,Cc1ccc(C(=O)NC2CCN(C(=O)Nc3cc(Cl)ccc3F)CC2)s1 [CBK305243],88.8
11,Cc1nn(C)c(Cl)c1CN1CCOC(c2ccccc2)C1 (centres unmarked) [CBK305244],83.2
12,Cc1nc2ccccc2n1CC(=O)N(Cc1cccnc1)C1CC1 [CBK305248],109
13,Cc1cc(O)nc(C(C)N2CCN(Cc3noc(C(C)(C)C)n3)CC2)n1 (centres unmarked) [CBK305249],95.4
14,CCn1c(CN2CCCC2c2noc(C)n2)nc2cc(F)ccc21 (centres unmarked) [CBK305250],55.9
15,O=C(CN1CC(O)CC1c1cccc(C(F)(F)F)c1)NCc1cccs1 (centres unmarked) [CBK305253],82.6
16,Cc1nc(-c2ccc(NCC(O)c3ccco3)nc2)[nH]c(=O)c1C (centres unmarked) [CBK305254],94.6
17,Cc1cccn2c(=O)cc(CN3CCc4c(nc(C5CC5)n4C)C3)nc12 [CBK305256],99.2
18,CC(C)(C)CC(=O)NS(=O)(=O)c1cccc(-c2nnco2)c1 [CBK305258],78
19,Cc1cccc(CN2CCC(NC(=O)NCc3ccn(C)c3)CC2)c1 [CBK305259],105
20,Cc1ccn(-c2ccc(N3CCC4(CC3)OCCO4)nn2)n1 [CBK305263],91.5
21,O=C1C(n2c(=O)[nH]c3ccccc3c2=O)CCN1CC(F)(F)F (centres unmarked) [CBK305264],104
22,COCCNC(=O)CN(C)c1cnc2ccccc2n1 [CBK305265],89.2
23,Cc1cc(C)n(CC(=O)N2CCCCC2C(=O)O)n1 (centres unmarked) [CBK305266],91.3

row,Compound,"viability at 28.5 h, 10 µM [%]"
1,O=C(CC1CCCO1)NS(=O)(=O)c1cccc(-c2nnco2)c1 (centres unmarked) [CBK305267],94.3
2,N#CC1(NC(=O)CN2CCOC(Cn3cccn3)C2)CCCCC1 (centres unmarked) [CBK305268],87.2
3,Cc1nc(CNC(=O)c2nn(-c3cccc(C(C)C)c3)cc2O)no1 [CBK305269],89
4,CC(CNc1cc(=O)n2ccccc2n1)CN1CCCC1 (centres unmarked) [CBK305270],99.1
5,COc1ccc(CN2CCCN(C(=O)c3ccc(C#N)cc3)CC2)cc1 [CBK305273],91.4
6,O=C(c1cccc(O)c1)N1CCN(Cc2cn3ccsc3n2)CC1 [CBK305275],76
7,CCOC(=O)C(CNC(=O)c1c(C)nn(C)c1C)Cc1ccccc1 (centres unmarked) [CBK305276],90
8,CCn1ncc2c1CCCC2NC1CCN(c2ccccc2F)C1=O (centres unmarked) [CBK305279],108
9,CCOc1cccc(CNC(=O)N2CCC(Cc3cnn(C)c3)C2)c1 (centres unmarked) [CBK305280],115
10,COc1ccc(CN2CCCN(C(=O)c3cccc(C#N)c3)CC2)cc1 [CBK305281],88.5
11,CCC(C)(NC(=O)c1ccn(-c2cc(C)ccc2OC)n1)C(=O)OC (centres unmarked) [CBK305282],78.7
12,CC(C)OC(=O)Cc1nc(CN2CCc3sccc3C2C)cs1 (centres unmarked) [CBK305284],85.3
13,COCCn1cc(C(=O)N2CCOC3CCCCC32)c2ccccc21 (centres unmarked) [CBK305288],113
14,COCCn1cc(C(=O)N2CCCC2c2cc(C)on2)c2ccccc21 (centres unmarked) [CBK305289],90.4
15,COCCN1CCCC(NS(=O)(=O)c2cccc(C(C)=O)c2)C1 (centres unmarked) [CBK305290],94.7
16,Cc1nc(C)n(CC2CCCN(CC(=O)NCc3ccccn3)C2)n1 (centres unmarked) [CBK305291],86.1
17,CC(=O)Nc1cccc(-n2nnnc2SCC2CCCN(C)C2)c1 (centres unmarked) [CBK305294],108
18,CCOc1cc(NC(=O)N2CCC(Cc3cnn(C)c3)C2)ccc1C (centres unmarked) [CBK305295],105
19,Cc1nc(C)c(C(=O)N2CCCC(C(=O)c3ccc(F)cc3)C2)s1 (centres unmarked) [CBK305296],104
20,Cn1cc(CCNC(=O)NC2CCN(Cc3ccccn3)CC2)cn1 [CBK305297],102
21,CCOCCCC(=O)N1CCN(Cc2nnc3n2CCCCC3)CC1 [CBK305298],90.9
22,CC(C(=O)NC1(C#N)CCCCC1)N1CCOC(c2nccs2)C1 (centres unmarked) [CBK305299],80.9
23,CSC(C)C(=O)N(C)C1CCN(c2ncnc3ccccc23)CC1 (centres unmarked) [CBK305300],83.4

row,Compound,"viability at 28.5 h, 10 µM [%]"
1,Cc1cccc(C(C)CNC(=O)N2CCC(Cc3cnn(C)c3)C2)c1 (centres unmarked) [CBK305301],96.9
2,CCCN(CC(=O)NCc1ccco1)Cc1nnc(-c2ccco2)o1 [CBK305302],111
3,CC(C)(C)C(=O)Nc1ccc(F)c(C(=O)N2CCc3[nH]ncc3C2)c1 [CBK305303],104
4,Cc1noc(C)c1CNS(=O)(=O)N1CCOC(c2ccccc2)C1 (centres unmarked) [CBK305306],83.2
5,CCOC1CCCN(C(=O)c2cccnc2Nc2cccc(F)c2)C1 (centres unmarked) [CBK305307],86.9
6,Cc1nc(C)c(CCC(=O)N2CCCCC2Cn2cccn2)c(=O)[nH]1 (centres unmarked) [CBK305310],102
7,CC(Oc1cccc(F)c1)C(=O)N(Cc1cccnc1)CC1CCCO1 (centres unmarked) [CBK305313],108
8,Cn1c(C2CC2)nc2c1CCN(Cc1cn3cc(Cl)ccc3n1)C2 [CBK305314],92.8
9,CCN(C(=O)Cc1cc(OC)ccc1Br)c1cccnc1 [CBK305318],97.7
10,CC(NC(=O)CC1(N2CCOCC2)CCCC1)c1cccc(C#N)c1 (centres unmarked) [CBK305320],106
11,CC(NC(=O)N1CCCN(Cc2cccs2)CC1)c1nncn1C (centres unmarked) [CBK305322],80.3
12,N#Cc1cccc(C(=O)N2CCCN(Cc3ccc(Cl)cc3)CC2)c1 [CBK305323],95.9
13,Cn1cc(CNCC2CCCN2c2cccnn2)c(-c2cccnc2)n1 (centres unmarked) [CBK305326],96.2
14,CC(C)c1csc(C2CCN(C(=O)CCc3ccsc3)CC2)n1 [CBK305327],104
15,Cc1cnn(C2CCCN(C(=O)CC3OCCc4sccc43)C2)c1 (centres unmarked) [CBK305329],84.6
16,CCCc1nc(CN2CCN(c3ccc4nncn4n3)CC2)cs1 [CBK305330],97.7
17,Cc1cc(C)n(CC2CCCCN2CC(=O)NC(C)c2ccco2)n1 (centres unmarked) [CBK305331],87.9
18,N#Cc1c(CN2CCCC(c3noc(C4CC4)n3)C2)cn2ccccc12 (centres unmarked) [CBK305332],98.7
19,Cc1cc(N2CCN(Cc3nc(C(C)(C)C)no3)CC2)nc(C(C)C)n1 [CBK305333],96.3
20,Cc1cnn(CCC(=O)N2CCOC(c3nc(C(C)(C)C)n[nH]3)C2)c1 (centres unmarked) [CBK305336],110
21,COc1ccc(CNC(=O)CN2CCCC(Cn3cncn3)C2)cc1 (centres unmarked) [CBK305339],88.9
22,Cc1ccc(C(CNCc2cn(C)nc2-c2cccnc2)N(C)C)cc1 (centres unmarked) [CBK305343],109
23,Cc1cccc(OCCNC(=O)CN2CCCC2Cn2cncn2)c1 (centres unmarked) [CBK305345],102

row,Compound,"viability at 28.5 h, 10 µM [%]"
1,CN(C(=O)c1ccccn1)C1CCN(c2ncnc3ccccc23)CC1 [CBK305346],91.8
2,CCc1nc(CN2CCCC(NC(C(N)=O)c3ccccc3)C2)no1 (centres unmarked) [CBK305348],97.4
3,COc1c(C)cnc(CNC2CCCN(Cc3noc(C)n3)C2)c1C (centres unmarked) [CBK305350],92.3
4,Cc1cc(C)n(CC2CN(C(C)C(=O)NCc3ccco3)CCO2)n1 (centres unmarked) [CBK305351],101
5,O=C(c1cn2ccccc2n1)N1CCCN(Cc2cscn2)CC1 [CBK305352],104
6,COc1ccc(C)cc1-n1ccc(C(=O)NCC2(C)CCCS2)n1 (centres unmarked) [CBK305355],83.3
7,CCc1cnc(CN(C)C2CCN(CC(=O)Nc3cccnc3)C2)o1 (centres unmarked) [CBK305358],92
8,O=C(Nc1cccc(Cl)c1)N(Cc1ccncc1)CC1CCCO1 (centres unmarked) [CBK305362],93
9,CCc1noc(C(C)N2CCN(CC(=O)NCc3ccco3)CC2)n1 (centres unmarked) [CBK305368],116
10,Cc1cnn(CC2CCCN2C(=O)CC2OCCc3ccsc32)c1 (centres unmarked) [CBK305370],86.5
11,CCc1nc(CN(C(C)=O)C2CCN(CCc3ccccn3)C2)no1 (centres unmarked) [CBK305372],96.7
12,CCc1nc(CN2CCCC(NCc3ccc(C(N)=O)cc3)C2)no1 (centres unmarked) [CBK305373],94.2
13,COc1ccc(C(=O)N2CCCN(Cc3ccc(C#N)cc3)CC2)cc1 [CBK305374],94.7
14,CC(C)n1ccnc1CNc1cccc(OCC(=O)N2CCCC2)c1 [CBK305377],97
15,COc1ccc(CNC(=O)CN2CCCCC2Cn2cccn2)cc1 (centres unmarked) [CBK305379],93.1
16,CCOC(=O)c1cnn(C2CCCN(C(=O)c3cscc3C)C2)c1 (centres unmarked) [CBK305385],93.1
17,CCc1cnccc1C(=O)N1CCC(NC(=O)c2cnn(C)c2)CC1 [CBK305388],105
18,Cn1cc(-c2nc(C3COCCN3Cc3ccc(F)cc3)no2)cn1 (centres unmarked) [CBK305391],97.7
19,CCn1c(C(C)NC2CCN(CC(=O)OC)CC2)nc2ccccc21 (centres unmarked) [CBK305396],97.9
20,COc1cccc(NC(=O)N(CCCO)C2CCc3ccccc32)c1 (centres unmarked) [CBK305397],95
21,CCn1cc(CN2CCCN(C(=O)c3cc(C4CC4)on3)CC2)cn1 [CBK305401],88.1
22,CN(Cc1cnn(C)c1)C(=O)c1ccc(Cl)cc1Br [CBK305404],93
23,CC(=O)NC(CC(=O)N1CCCC(n2cccn2)C1)c1cccs1 (centres unmarked) [CBK305405],94.6
